Results as given in patent US6887873B2, “Triazine derivatives and their application as antitelomerase agents” (Aventis Pharma S.A., priority 2001, dated 2005).
Values joined by “and” are separate entries in the source; they are usually repeats but may differ in a detail not shown here. Equal entries are not always repeated.

Key:
[1] = system: G-quadruplex of oligonucleotide GGGTTAGGGTTAGGGTTAGGG (3.5 repeats of the human telomereic motif); assay: G-quadruplex stabilizing activity, fluorescence Tm (FAM+DABCYL oligonucleotide); assay type: binding
Description: The G-quadruplex stabilizing activity may be determined by a method using the formation of a complex with fluorescein of which the experimental protocol is described below.
All the nucleotides, modified or otherwise, were synthesized by Eurogentec SA, Seraing, Belgium. The oligonucleotide FAM+DABCYL carries the catalogue reference OL-0371-0802. It has the sequence: […] corresponding to 3.5 repeats of the human telomereic motif (strand rich in G). The fluorescein is attached to the 5′ end, the DABCYL to the 3′ end, by the chemical arms described by Eurogentec. The concentration of the samples is checked by spectrophotometry, recording the absorbance spectrum between 220 and 700 nm and using the molar extinction coefficient provided by the supplier.
All the experiments were carried out in a 10 mM sodium cacodylate buffer pH 7.6 containing 0.1 M lithium chloride (or sodium chloride). The absence of fluorescent contamination in the buffer was checked beforehand. The fluorescent oligonucleotide is added at the final concentration of 0.2 μM.
All the measurements of fluorescence were carried out on a Spex Fluorolog DM1B apparatus, using an excitation line width of 1.8 nm and an emission line width of 4.5 nm. The samples are placed in a microquartz cuvette of 0.2×1 cm. The temperature of the sample is controlled by an external water bath. The oligonucleotide alone was analysed at 20, 30, 40, 50, 60, 70 and 80° C. The emission spectra are recorded using an excitation wavelength of 470 nm. The excitation spectra are recorded using either 515 nm or 588 nm as emission wavelength. The spectra are corrected for the response of the instrument by reference curves. A high extinction (80-90%) of the fluorescence of fluorescein at room temperature is observed, in agreement with an intramolecular folding of the oligonucleotide at 20° C. in the form of a G-quadruplex, which induces juxtaposition of its 5′ and 3′ ends which are respectively linked to fluorescein and to DABCYL. This juxtaposition causes an already-described phenomenon of extinction of fluorescence which is used for “molecular beacons”.
An oligonucleotide stock solution at the strand concentration of 0.2 μM in 0.1 M LiCl, 10 mM cacodylate buffer, pH 7.6, is prepared beforehand, heated briefly at 90° C. and slowly cooled to 20° C., and then distributed in aliquots of 600 μl in the fluorescence cuvettes. 3 μl of water (for the control) or 3 μl of test product (stock at 200 μM, final concentration 1 μM) are then added and mixed. The samples are then allowed to incubate for at least 1 hour at 20° C. before each measurement. The use of longer incubation times (up to 24 hours) has no influence on the result obtained.
Each experiment allows the measurement of only one sample. The latter is first incubated at an initial temperature of 20° C., heated to 80° C. over 38 minutes, left for 5 minutes at 80° C. and then cooled to 20° C. over 62 minutes. During this time, the fluorescence is measured simultaneously at two emission wavelengths (515 nm and 588 nm) using 470 nm as excitation wavelength. A measurement is carried out every 30 seconds. The temperature of the water bath is recorded in parallel, and the fluorescence profile as a function of the temperature is reconstituted from these values. The fluorescence profiles are then normalized between 20° C. and 80° C., and the temperature for which the intensity of emission at 515 nm is the mean of those at high and low temperature is called Tm. Under these conditions, the Tm of the reference sample without addition of product is 44° C. in a lithium chloride buffer. This temperature is increased to more than 55° C. in a sodium chloride buffer. The addition of a G-quadruplex-stabilizing compound induces an increase in the Tm. This increase is judged to be significant if it is greater than 3°.

[2] = system: human telomerease (HL60 cell extract); assay: Antitelomerease activity: extension of oligonucleotide TS followed by PCR amplification, with HL60 extract; assay type: biochemical; details: read-out: TRAP IC50
Description: The antitelomerease biological activity is determined by the following experimental protocol:
The leukaemia line HL60 is obtained from ATCC (American Type Culture Collection, Rockville, USA). The cells are cultured in suspension in RPMI 1640 medium containing L-glutamine at 2 mM, penicillin 200 U/ml, streptomycin 200 μg/ml, gentamycin 50 μg/ml and supplemented with 10% heat-inactivated foetal calf serum.
An aliquot of 10^5 cells is centrifuged at 3000×G and the supernatant discarded. The cell pellet is resuspended by several successive pipettings in 200 μl of lysis buffer containing 0.5% CHAPS, 10 mM Tris-HCl, pH 7.5, 1 mM MgCl2, 1 mM EGTA, 5 mM β-mercaptoethanol, 0.1 mM PMSF and 10% glycerol and is stored in ice for 30 minutes. The lysate is centrifuged at 160,000×G for 20 minutes at 4° C. and 160 μl of supernatant are recovered. The proteins in the extract are assayed by the Bradford method. The extract is stored at −80° C.
The inhibition of the telomerease activity is determined by a protocol for extension of the oligonucleotide TS (^5′AATCGTTCGAGCAGAGTT^3′), in the presence of a cellular extract enriched in telomerease activity and compounds which are added at various concentrations (10, 1, 0.1 and 0.01 μM). The extension reaction is followed by a PCR amplification of the extension products with the aid of the oligonucleotides TS and CXext (^5′[…]^3′).
The reaction medium is prepared based on the following composition:
The oligonucleotides are obtained from Eurogentec (Belgium) and are stored at −20° C. at a stock concentration of 1 mg/ml in distilled water.
The reaction samples are assembled in 0.2 ml PCR tubes and one drop of paraffin oil is deposited on each of the reactions of the experiment before closing the tubes.
The reaction samples are then incubated in a Cetus 4800-type PCR apparatus under the following temperature conditions: • 15 minutes at 30° C., • 1 minute at 90° C., • followed by 30 cycles of, • 30 seconds at 94° C., • 30 seconds at 50° C., • and 1 minute 30 seconds at 72° C., • followed by a final cycle of 2 minutes at 72° C.
For each of the samples, an aliquot of 10 μl is pipetted under the oil layer and mixed with 5 μl of a loading buffer containing:
The samples are then analysed by electrophoresis on 12% acrylamide gel in a 1×TBE buffer for 1 hour at a voltage of 200 volts, with the aid of a Novex electrophoresis system.
The acrylamide gels are then dried on a sheet of Whatmann 3 mm paper at 80° C. for 1 hour.
The analysis and the quantification of the reaction products are carried out with the aid of an InstantImager apparatus (Pacard).
For each compound concentration tested, the results are expressed as percentage inhibition of the reaction and calculated from the untreated enzymatic control and from the enzyme-free sample (blank) according to the following formula: (compound value−blank value/enzymatic control value−blank value)×100.
The concentration of compound inducing a 50% inhibition of the telomerease reaction (IC50) is determined with the aid of a semilogarithmic graphical representation of the inhibition values obtained as a function of each of the compound concentrations tested.
A compound is considered to be active as an antitelomerease agent when the quantity inhibiting 50% of the telomerease reaction is in particular less than 5 μM.

SMILES | G4 delta Tm [1] [°C] | IC50 [2]
Cc1cc(N)c2cc(Nc3nc(Nc4ccncc4)nc(Nc4ccccc4Cl)n3)ccc2n1 [Example 4] | 5.5 | 3000 nM
Cc1cc(N)c2cc(Nc3nc(NCCN(C)C)nc(Nc4ccccc4Cl)n3)ccc2n1 [Example 5] | 2.0 | 2700 nM
Cc1cc(N)c2cc(Nc3nc(NCCCN(C)C)nc(Nc4ccccc4Cl)n3)ccc2n1 [Example 6] | – | 3500 nM
Cc1cc(N)c2cc(Nc3nc(Nc4ccccc4Cl)nc(NC4CCN(C)CC4)n3)ccc2n1 [Example 7] | 3.0 | 2400 nM
Cc1cc(N)c2cc(Nc3nc(Nc4ccccc4Cl)nc(N4CCN(C)CC4)n3)ccc2n1 [Example 8] | 1.5 | 3200 nM
Cc1cc(N)c2cc(Nc3nc(NCCCN(C)C)nc(Nc4ccc5nc(C)cc(N(C)C)c5c4)n3)ccc2n1 [Example 9] | 10.0 | 100 nM
Cc1cc(N)c2cc(Nc3nc(Nc4ccncc4)nc(Nc4ccc5nc(C)cc(N)c5c4)n3)ccc2n1 [Example 10] | 8.9 | 360 nM
Cc1cc(N)c2cc(Nc3nc(Nc4ccc5nc(C)cc(N)c5c4)nc(Nc4ccc5nc(C)cc(N(C)C)c5c4)n3)ccc2n1 [Example 11, 2,4-bis(4-amino-2-methylquinolin-6-yl)amino-6-(4-dimethylamino-2-methylquinolin-6-yl)amino-[1,3,5]triazine] | 11.4 | 160 nM
Cc1cc(N)c2cc(Nc3nc(NCCCN(C)C)nc(Nc4ccc5nc(C)cc(N)c5c4)n3)ccc2n1 [Example 12] | 9.4 | 300 nM
Cc1cc(N)c2cc(Nc3nc(Nc4ccc5nc(C)cc(N)c5c4)nc(NC4CCN(C)CC4)n3)ccc2n1 [Example 13] | 7.2 | 260 nM
Cc1cc(N)c2cc(Nc3nc(Nc4ccc5nc(C)cc(N)c5c4)nc(N4CCN(C)CC4)n3)ccc2n1 [Example 14] | 4.4 | 210 nM
Cc1cc(N)c2cc(Nc3nc(NCC4CCCN4)nc(Nc4ccc5nc(C)cc(N)c5c4)n3)ccc2n1 (stereo not shown) [Example 16] | 7.3 | 80 nM
Cc1cc(N(C)C)c2cc(Nc3nc(NCC4CCCN4)nc(Nc4ccc5nc(C)cc(N(C)C)c5c4)n3)ccc2n1 (stereo not shown) [Example 22] | 2.7 | 340 nM
Cc1cc(N(C)C)c2cc(Nc3nc(Nc4ccc5nc(C)cc(N(C)C)c5c4)nc(N4CCCC4)n3)ccc2n1 [Example 23] | 9.2 | 3000 nM
Cc1cc(N)c2cc(Nc3nc(Nc4ccc5nc(C)cc(N)c5c4)nc(Oc4ccccc4)n3)ccc2n1 [Example 29, 2,4-bis(4-amino-2-methylquinolin-6-yl)amino-6-phenoxy-[1,3,5]triazine] | – | 320 nM and 470 nM
Cc1cc(N)c2cc(Nc3nc(Nc4ccc5nc(C)cc(N)c5c4)nc(Nc4cccc5nn[nH]c45)n3)ccc2n1 [Example 61] | – | 360 nM
Cc1cc(N)c2cc(Nc3nc(NCc4cccc5ccccc45)nc(Nc4ccc5nc(C)cc(N)c5c4)n3)ccc2n1 [Example 78] | – | 1500 nM

SMILES | G4 delta Tm [1] [°C] | IC50 [2]
Cc1cc(N)c2cc(Nc3nc(Nc4ccc5ccccc5c4)nc(Nc4ccc5nc(C)cc(N)c5c4)n3)ccc2n1 [Example 79] | – | 3600 nM
Cc1cc(N)c2cc(Nc3nc(NCCN4CCOCC4)nc(Nc4ccc5nc(C)cc(N)c5c4)n3)ccc2n1 [Example 80] | – | 1200 nM
Cc1cc(N)c2cc(Nc3nc(NCc4cccc5cnccc45)nc(Nc4ccc5nc(C)cc(N)c5c4)n3)ccc2n1 [Example 81] | – | 1400 nM
COc1cccc(Nc2nc(Nc3ccc4nc(C)cc(N)c4c3)nc(Nc3ccc4nc(C)cc(N)c4c3)n2)c1 [Example 82] | – | 1600 nM
COCCNc1nc(Nc2ccc3nc(C)cc(N)c3c2)nc(Nc2ccc3nc(C)cc(N)c3c2)n1 [Example 84] | – | 2200 nM
Cc1cc(N)c2cc(Nc3nc(Nc4ccc5nc(C)cc(N)c5c4)nc(Nc4nccc5ccccc45)n3)ccc2n1 [Example 87] | – | 1500 nM
Cc1cc(N)c2cc(Nc3nc(Nc4ccc5nc(C)cc(N)c5c4)nc(Nc4ncccn4)n3)ccc2n1 [Example 94] | – | 940 nM
Cc1cc(N)c2cc(Nc3nc(Nc4ccc5nc(C)cc(N)c5c4)nc(Nc4cccc5ncccc45)n3)ccc2n1 [Example 95] | – | 930 nM
Cc1cc(N)c2cc(Nc3nc(Nc4ccc5ncccc5c4)nc(Nc4ccc5nc(C)cc(N)c5c4)n3)ccc2n1 [Example 96] | – | 480 nM
Cc1cc(N)c2cc(Nc3nc(Nc4ccc5nc(C)cc(N)c5c4)nc(Nc4cccc5cccnc45)n3)ccc2n1 [Example 97] | – | 690 nM
Cc1cc(N)c2cc(Nc3nc(Nc4ccc5nc(C)cc(N)c5c4)nc(Nc4ccc5c6c(cccc46)CC5)n3)ccc2n1 [Example 99] | – | 600 nM
Cc1cc(N)c2cc(Nc3nc(Nc4ccc5nc(C)cc(N)c5c4)nc(Nc4cc5ccccc5cn4)n3)ccc2n1 [Example 100] | – | 450 nM
Cc1cc2c(Nc3nc(Nc4ccc5nc(C)cc(N)c5c4)nc(Nc4ccc5nc(C)cc(N)c5c4)n3)cccc2cn1 [Example 101] | – | 810 nM
CCOc1cc(Nc2nc(Nc3ccc4nc(C)cc(N)c4c3)nc(Nc3ccc4nc(C)cc(N)c4c3)n2)c2ncccc2c1 [Example 102] | – | 570 nM
Cc1cc(N)c2cc(Nc3nc(Nc4ccc5nc(C)cc(N)c5c4)nc(Sc4ccc5ccccc5c4)n3)ccc2n1 [Example 116] | – | 1800 nM
Cc1cc(N)c2cc(Nc3nc(Nc4ccc5nc(C)cc(N)c5c4)nc(Sc4ncccn4)n3)ccc2n1 [Example 121] | – | 400 nM and 360 nM
